From US9302991B2, “Arylamide derivatives as TTX-S blockers” (RaQualia Pharma Inc., priority 2010, dated 2016)

Each compound was assayed against T1, human Nav1.7 channels (Homo sapiens, UniProt Q15858) (assay: FRET assay, human Nav1.7 (EFS on FDSS)). Conditions: CHO cells expressing human Nav1.7, read-out: IC50 against Nav1.7.
T1 construct: expressed in transfected cells; host or cells: CHO
Type: cell-based
Outline: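 IC50 was derived from normalized 440 nm fluorescence ratios of the EFS-evoked membrane-potential response read on FDSS. Recombinant CHO cells were sequentially dye-loaded with coumarin/oxonol FRET pair at room temperature in pH 7.4 buffer before compound addition.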

T1 sequence (Q15858 whole entry): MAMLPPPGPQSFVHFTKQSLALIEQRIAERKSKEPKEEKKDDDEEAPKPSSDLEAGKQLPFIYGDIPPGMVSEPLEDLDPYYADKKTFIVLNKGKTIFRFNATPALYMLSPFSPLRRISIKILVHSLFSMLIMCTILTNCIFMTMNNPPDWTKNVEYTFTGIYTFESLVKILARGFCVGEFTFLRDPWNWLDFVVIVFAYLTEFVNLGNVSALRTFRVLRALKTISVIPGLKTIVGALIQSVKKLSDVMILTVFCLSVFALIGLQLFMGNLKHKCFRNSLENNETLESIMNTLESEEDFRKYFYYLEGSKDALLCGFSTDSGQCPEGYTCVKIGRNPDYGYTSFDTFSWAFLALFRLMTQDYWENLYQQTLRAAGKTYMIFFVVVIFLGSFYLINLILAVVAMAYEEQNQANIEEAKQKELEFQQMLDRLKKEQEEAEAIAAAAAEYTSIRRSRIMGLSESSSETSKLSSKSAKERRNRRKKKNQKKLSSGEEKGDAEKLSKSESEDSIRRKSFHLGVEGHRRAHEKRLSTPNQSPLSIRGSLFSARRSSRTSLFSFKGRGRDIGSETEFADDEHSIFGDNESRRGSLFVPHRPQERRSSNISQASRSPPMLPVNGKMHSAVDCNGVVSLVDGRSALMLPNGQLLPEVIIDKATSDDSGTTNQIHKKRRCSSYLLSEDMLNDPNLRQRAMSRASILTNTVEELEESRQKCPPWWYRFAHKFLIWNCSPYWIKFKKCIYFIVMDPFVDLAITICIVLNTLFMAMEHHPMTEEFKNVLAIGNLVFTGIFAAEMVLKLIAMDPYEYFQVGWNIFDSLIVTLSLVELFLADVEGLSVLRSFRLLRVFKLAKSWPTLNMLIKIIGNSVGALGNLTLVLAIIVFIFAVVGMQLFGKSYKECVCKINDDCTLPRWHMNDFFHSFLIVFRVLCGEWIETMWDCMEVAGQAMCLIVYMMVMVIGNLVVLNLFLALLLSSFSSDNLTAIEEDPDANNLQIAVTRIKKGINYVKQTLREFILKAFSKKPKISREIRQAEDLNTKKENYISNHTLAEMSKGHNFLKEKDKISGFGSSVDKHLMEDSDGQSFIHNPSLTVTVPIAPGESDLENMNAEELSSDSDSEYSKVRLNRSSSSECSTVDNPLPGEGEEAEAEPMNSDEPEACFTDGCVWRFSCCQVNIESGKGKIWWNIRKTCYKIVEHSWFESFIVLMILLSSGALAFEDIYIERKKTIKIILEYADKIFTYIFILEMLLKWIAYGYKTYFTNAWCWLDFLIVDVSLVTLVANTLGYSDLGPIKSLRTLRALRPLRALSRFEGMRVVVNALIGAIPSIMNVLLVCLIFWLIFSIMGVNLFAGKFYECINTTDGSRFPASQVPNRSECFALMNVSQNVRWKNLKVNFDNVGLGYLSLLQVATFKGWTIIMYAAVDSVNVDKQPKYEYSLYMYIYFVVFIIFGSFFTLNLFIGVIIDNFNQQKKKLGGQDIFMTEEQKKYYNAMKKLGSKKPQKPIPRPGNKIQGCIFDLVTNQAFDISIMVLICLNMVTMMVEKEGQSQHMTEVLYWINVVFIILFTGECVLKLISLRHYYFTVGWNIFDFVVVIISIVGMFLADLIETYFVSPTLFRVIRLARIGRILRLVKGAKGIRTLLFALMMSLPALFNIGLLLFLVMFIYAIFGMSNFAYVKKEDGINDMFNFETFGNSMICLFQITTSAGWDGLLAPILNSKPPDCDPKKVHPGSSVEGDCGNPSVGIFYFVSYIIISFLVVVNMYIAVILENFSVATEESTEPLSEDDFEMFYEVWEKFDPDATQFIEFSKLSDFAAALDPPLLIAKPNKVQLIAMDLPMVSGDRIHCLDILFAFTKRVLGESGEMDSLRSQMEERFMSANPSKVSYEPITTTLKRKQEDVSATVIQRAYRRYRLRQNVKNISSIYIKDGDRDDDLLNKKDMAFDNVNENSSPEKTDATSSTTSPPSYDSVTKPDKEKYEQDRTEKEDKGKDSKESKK

SMILES	IC50
COc1nc(OCC(F)F)ccc1CNC(=O)c1cc(C)nc(NC(C)=O)c1 [Example 1156, 2-acetamido-N-((6-(2,2-difluoroethoxy)-2-methoxypyridin-3-yl)methyl)-6-methylisonicotinamide]	< 1000 nM
COc1nc(OCC(F)F)ccc1CNC(=O)c1cc(C)nc(NC(=O)C(C)C)c1 [Example 1157, N-((6-(2,2-difluoroethoxy)-2-methoxypyridin-3-yl)methyl)-2-isobutyramido-6-methylisonicotinamide]	< 1000 nM

These compounds were tested against T2, human Nav1.3 channels (Homo sapiens, UniProt Q9NY46) (assay: FRET assay, human Nav1.3 (EFS on FDSS)). Conditions: HEK293 cells expressing human Nav1.3, read-out: IC50 against Nav1.3.
T2 construct: expressed in transfected cells; host or cells: HEK293
T2 sequence (Q9NY46 whole entry): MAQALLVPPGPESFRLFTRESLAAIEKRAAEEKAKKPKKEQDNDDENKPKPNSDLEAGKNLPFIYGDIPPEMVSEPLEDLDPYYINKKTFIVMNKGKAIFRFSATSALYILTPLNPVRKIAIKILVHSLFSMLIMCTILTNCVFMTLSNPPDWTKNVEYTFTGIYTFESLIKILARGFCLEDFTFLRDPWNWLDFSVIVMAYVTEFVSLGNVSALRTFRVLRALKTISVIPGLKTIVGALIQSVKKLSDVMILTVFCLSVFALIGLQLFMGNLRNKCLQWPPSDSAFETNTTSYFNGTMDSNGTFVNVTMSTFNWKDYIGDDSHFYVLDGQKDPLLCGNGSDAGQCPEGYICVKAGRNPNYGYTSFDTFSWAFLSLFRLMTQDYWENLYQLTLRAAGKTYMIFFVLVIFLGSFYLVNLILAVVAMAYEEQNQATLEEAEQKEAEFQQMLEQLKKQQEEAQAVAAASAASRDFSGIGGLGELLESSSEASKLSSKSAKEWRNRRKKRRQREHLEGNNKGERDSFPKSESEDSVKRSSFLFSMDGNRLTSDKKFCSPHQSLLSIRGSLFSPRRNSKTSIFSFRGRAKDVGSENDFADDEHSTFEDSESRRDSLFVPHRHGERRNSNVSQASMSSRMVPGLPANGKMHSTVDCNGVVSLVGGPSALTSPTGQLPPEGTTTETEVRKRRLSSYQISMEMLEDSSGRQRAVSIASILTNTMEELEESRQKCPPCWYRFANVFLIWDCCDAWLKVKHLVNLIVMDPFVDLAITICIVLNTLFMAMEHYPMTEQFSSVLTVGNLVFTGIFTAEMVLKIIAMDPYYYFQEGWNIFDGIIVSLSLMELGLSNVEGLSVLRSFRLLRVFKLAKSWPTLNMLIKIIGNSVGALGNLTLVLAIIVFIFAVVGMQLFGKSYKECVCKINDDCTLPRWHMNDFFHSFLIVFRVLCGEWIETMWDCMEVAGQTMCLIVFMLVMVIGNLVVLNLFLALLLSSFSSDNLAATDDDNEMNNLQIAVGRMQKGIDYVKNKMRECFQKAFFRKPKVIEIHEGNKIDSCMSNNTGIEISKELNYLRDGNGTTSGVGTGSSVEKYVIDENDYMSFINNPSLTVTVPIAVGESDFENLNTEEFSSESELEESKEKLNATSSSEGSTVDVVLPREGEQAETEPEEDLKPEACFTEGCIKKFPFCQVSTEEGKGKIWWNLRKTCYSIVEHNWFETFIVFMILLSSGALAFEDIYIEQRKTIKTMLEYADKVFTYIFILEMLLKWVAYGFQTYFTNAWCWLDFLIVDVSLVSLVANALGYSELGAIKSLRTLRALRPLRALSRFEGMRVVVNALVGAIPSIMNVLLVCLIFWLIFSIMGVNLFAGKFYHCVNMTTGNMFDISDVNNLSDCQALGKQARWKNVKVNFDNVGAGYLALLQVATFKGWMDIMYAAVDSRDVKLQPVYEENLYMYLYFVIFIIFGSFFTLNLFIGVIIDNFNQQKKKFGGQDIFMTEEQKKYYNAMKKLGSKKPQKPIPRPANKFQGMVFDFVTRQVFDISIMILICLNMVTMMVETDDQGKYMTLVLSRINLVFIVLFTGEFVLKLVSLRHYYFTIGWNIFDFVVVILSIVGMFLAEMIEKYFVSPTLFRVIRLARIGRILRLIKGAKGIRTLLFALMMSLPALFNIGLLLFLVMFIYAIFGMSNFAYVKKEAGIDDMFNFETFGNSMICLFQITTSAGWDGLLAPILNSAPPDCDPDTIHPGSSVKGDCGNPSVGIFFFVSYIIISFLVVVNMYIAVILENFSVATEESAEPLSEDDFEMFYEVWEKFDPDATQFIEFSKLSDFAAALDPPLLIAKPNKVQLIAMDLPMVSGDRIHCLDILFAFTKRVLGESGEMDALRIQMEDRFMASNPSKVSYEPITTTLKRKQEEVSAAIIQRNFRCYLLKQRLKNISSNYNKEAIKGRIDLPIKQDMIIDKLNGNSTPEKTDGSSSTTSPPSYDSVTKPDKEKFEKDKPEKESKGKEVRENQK
Type: cell-based
Experimental: The inhibitory activities of compounds against voltage gated sodium channels are determined by methodology well known in the art.
The ability of the aryl substituted carboxamide derivatives of the formula (I) to inhibit the NaV1.3, Nav1.7 and Nav1.5 channels is measured by Fluorescence Resonance Energy Transfer (FRET) assay and electrophysiology assay described below.
This screen is used to determine the effects of compounds on human Nav1.3, human Nav1.7, and human Nav1.5 channels, utilising electrical field stimulation (EFS) system in 96-well plate format on FDSS (Hamamatsu Photonics) platform. The change of membrane potential is monitored with FRET dye pair, oxonol (DiSBAC2(3)) and coumarin (CC2-DMPE).
Each HEK293 cells expressing human Nav1.3 channels and HEK293 cells expressing human Nav1.5 channels are grown in T225 flasks, in a 5% CO2 humidified incubator to about 80% confluence. Media composition consists of Dulbecco's Modified Eagle Medium (high glucose), 10% FCS, 100 units/mL Penicillin, 100 microgram/mL Streptomycin and 500 microgram/mL Geneticine.
Protocol: • Seed each cell lines (1×10^5 cells/well) into poly-D-lysine coated 96-well plates prior to experimentation. • Incubate at 37° C. in 5% CO2 for 24 hours. • Wash each well with assay buffer (140 mM NaCl, 4.5 mM KCl, 10 mM D-Glucose, 2 mM CaCl2, 1 mM MgCl2, 10 mM HEPES, pH 7.4 adjusted with NaOH) twice. • Add 1st loading solution containing 10 microM CC2-DMPE and 0.06% Pluronic F-127 in assay buffer. • Incubate the plate at room temperature in dark for 1 hour. • Remove 1st loading solution and added 2nd loading solution containing 15 microM DiSBAC2(3), 0.555 mM VABSC-1 and 0.004% Pluronic F-127 in assay buffer. • Place the plate under the dark at room temperature for 25 minutes. • Add compound solutions into the assay plate. • Set the assay plate in FDSS and placed an EFS device on the plate. • Measure EFS-induced fluorescent response by FDSS.
The data are analyzed and reported as normalized ratios of intensities measured at […]. The process of calculating these ratios is performed as follows:
This analysis is performed using a computerized specific program designed for FDSS generated data. Fluorescence ratio values are plotted using XLfit to determine an IC50 value for each compound.

SMILES	IC50
COCCNc1nc(C)cc(C(=O)NC(C)c2cnc(OCC(F)(F)F)c(C)c2)n1 (single isomer, unassigned) [Example 475, 2-((2-methoxyethyl)amino)-6-methyl-N-(1-(5-methyl-6-(2,2,2-trifluoroethoxy)pyridin-3-yl)ethyl)pyrimidine-4-carboxamide]	< 1000 nM
Cc1cc(C(C)NC(=O)c2ccc3cccc(O)c3n2)cnc1OCC(F)(F)F (single isomer, unassigned) [Example 535, 8-hydroxy-N-(1-(5-methyl-6-(2,2,2-trifluoroethoxy)pyridin-3-yl)ethyl)quinoline-2-carboxamide]	< 1000 nM
C=C(C)C(=O)Nc1cc(C(=O)NC(C)c2ccc(OCC(F)(F)F)nc2)cc(C)n1 (single isomer, unassigned) [Example 571, 2-methacrylamido-6-methyl-N-(1-(6-(2,2,2-trifluoroethoxy)pyridin-3-yl)ethyl)isonicotinamide]	< 1000 nM
CC(C)C(=O)Nc1cc(C(=O)NC(C)c2ccc(OCC(F)(F)C(F)(F)F)nc2)ccn1 (single isomer, unassigned) [Example 690, 2-isobutyramido-N-(1-(6-(2,2,3,3,3-pentafluoropropoxy)pyridin-3-yl)ethyl)isonicotinamide]	< 1000 nM
CCC(=O)Nc1cc(C(=O)NC(C)c2ccc(OCC(F)(F)C(F)(F)F)nc2)cc(C)n1 (single isomer, unassigned) [Example 692, 2-methyl-N-(1-(6-(2,2,3,3,3-pentafluoropropoxy)pyridin-3-yl)ethyl)-6-propionamidoisonicotinamide]	< 1000 nM
CC(NC(=O)c1ccnc(NC(=O)C2CC2)n1)c1ccc(OCC(F)(F)C(F)(F)F)nc1 (single isomer, unassigned) [Example 694, 2-(cyclopropanecarboxamido)-N-(1-(6-(2,2,3,3,3-pentafluoropropoxy)pyridin-3-yl)ethyl)pyrimidine-4-carboxamide]	< 1000 nM
Cc1cc(C(=O)NC(C)c2ccc(OCC(F)F)c(Cl)c2)nc(NC(=O)C2CC2)n1 (single isomer, unassigned) [Example 984, N-(1-(3-chloro-4-(2,2-difluoroethoxy)phenyl)ethyl)-2-(cyclopropanecarboxamido)-6-methylpyrimidine-4-carboxamide]	< 1000 nM
CC(=O)Nc1cc(C(=O)NCc2cnc(OCC(F)(F)F)c(Cl)c2)ccn1 [Example 93, 2-acetamido-N-((5-chloro-6-(2,2,2-trifluoroethoxy)pyridin-3-yl)methyl)isonicotinamide]	< 1000 nM
O=C(NCc1cnc(OCC(F)(F)F)c(Cl)c1)c1ccnc(NC(=O)C2CC2)c1 [Example 95, N-((5-chloro-6-(2,2,2-trifluoroethoxy)pyridin-3-yl)methyl)-2-(cyclopropanecarboxamido)isonicotinamide]	< 1000 nM
CCC(=O)Nc1cc(C(=O)NCc2ccc(OCC(F)(F)F)nc2)ccn1 [Example 151, 2-propionamido-N-((6-(2,2,2-trifluoroethoxy)pyridin-3-yl)methyl)isonicotinamide]	< 1000 nM
CCC(=O)Nc1cc(C(=O)NCc2cccc(OCC(F)(F)F)n2)ccn1 [Example 464, 2-propionamido-N-((6-(2,2,2-trifluoroethoxy)pyridin-2-yl)methyl)isonicotinamide]	< 1000 nM
O=C(NCc1cccc(OCC(F)(F)F)n1)c1ccnc(NC(=O)C2CC2)c1 [Example 465, 2-(cyclopropanecarboxamido)-N-((6-(2,2,2-trifluoroethoxy)pyridin-2-yl)methyl)isonicotinamide]	< 1000 nM
CC(=O)Nc1cc(C(=O)NCc2cccc(OCC(F)(F)F)n2)cc(C)n1 [Example 466, 2-acetamido-6-methyl-N-((6-(2,2,2-trifluoroethoxy)pyridin-2-yl)methyl)isonicotinamide]	< 1000 nM
CC(C)C(=O)Nc1cc(C(=O)NCc2cccc(OCC(F)(F)F)n2)ccn1 [Example 468, 2-isobutyramido-N-((6-(2,2,2-trifluoroethoxy)pyridin-2-yl)methyl)isonicotinamide]	< 1000 nM
CCCC(=O)Nc1cc(C(=O)NCc2cccc(OCC(F)(F)F)n2)ccn1 [Example 469, 2-butyramido-N-((6-(2,2,2-trifluoroethoxy)pyridin-2-yl)methyl)isonicotinamide]	< 1000 nM
Cc1cc(C(=O)NCc2cccc(OCC(F)(F)F)n2)cc(NC(=O)C(C)C)n1 [Example 496, 2-isobutyramido-6-methyl-N-((6-(2,2,2-trifluoroethoxy)pyridin-2-yl)methyl)isonicotinamide]	< 1000 nM
CCNC(=O)c1cc(C(=O)NCc2ccc(OCC(F)(F)F)nc2OC)cc(C)n1 [Example 508, N2-ethyl-N4-((2-methoxy-6-(2,2,2-trifluoroethoxy)pyridin-3-yl)methyl)-6-methylpyridine-2,4-dicarboxamide]	< 1000 nM
Cc1cc(C(=O)NCc2cnc(OCC(F)(F)F)cc2C)cc(NC(=O)C(C)C)n1 [Example 516, 2-isobutyramido-6-methyl-N-((4-methyl-6-(2,2,2-trifluoroethoxy)pyridin-3-yl)methyl)isonicotinamide]	< 1000 nM
Cc1ccc(OCC(F)(F)F)nc1CNC(=O)c1ccnc(NC(=O)C(C)C)c1 [Example 566, 2-isobutyramido-N-((3-methyl-6-(2,2,2-trifluoroethoxy)pyridin-2-yl)methyl)isonicotinamide]	< 1000 nM
Cc1ccc(OCC(F)(F)F)nc1CNC(=O)c1ccnc(NC(=O)C2CC2)c1 [Example 568, 2-(cyclopropanecarboxamido)-N-((3-methyl-6-(2,2,2-trifluoroethoxy)pyridin-2-yl)methyl)isonicotinamide]	< 1000 nM
CCC(=O)Nc1cc(C(=O)NCc2cc(C(F)(F)F)ccc2F)ccn1 [Example 572, N-(2-fluoro-5-(trifluoromethyl)benzyl)-2-propionamidoisonicotinamide]	< 1000 nM
O=C(NCc1cc(C(F)(F)F)ccc1F)c1ccnc(NC(=O)C2CC2)c1 [Example 573, 2-(cyclopropanecarboxamido)-N-(2-fluoro-5-(trifluoromethyl)benzyl)isonicotinamide]	< 1000 nM
CC(=O)Nc1cc(C(=O)NCc2cc(C(F)(F)F)ccc2F)cc(C)n1 [Example 574, 2-acetamido-N-(2-fluoro-5-(trifluoromethyl)benzyl)-6-methylisonicotinamide]	< 1000 nM
Cc1cc(C(=O)NCc2cc(C(F)(F)F)ccc2F)cc(NC(=O)C(C)C)n1 [Example 575, N-(2-fluoro-5-(trifluoromethyl)benzyl)-2-isobutyramido-6-methylisonicotinamide]	< 1000 nM
Cc1cc(CNC(=O)c2ccnc(NC(=O)C(C)C)c2)nc(OCC(F)(F)F)c1 [Example 576, 2-isobutyramido-N-((4-methyl-6-(2,2,2-trifluoroethoxy)pyridin-2-yl)methyl)isonicotinamide]	< 1000 nM
Cc1cc(CNC(=O)c2cc(C)nc(NC(=O)C(C)C)c2)nc(OCC(F)(F)F)c1 [Example 577, 2-isobutyramido-6-methyl-N-((4-methyl-6-(2,2,2-trifluoroethoxy)pyridin-2-yl)methyl)isonicotinamide]	< 1000 nM
Cc1cc(CNC(=O)c2ccnc(NC(=O)C3CC3)c2)nc(OCC(F)(F)F)c1 [Example 578, 2-(cyclopropanecarboxamido)-N-((4-methyl-6-(2,2,2-trifluoroethoxy)pyridin-2-yl)methyl)isonicotinamide]	< 1000 nM
CCC(=O)Nc1cc(C(=O)NCc2ccc(F)c(OC(F)(F)F)c2)cc(C)n1 [Example 591, N-(4-fluoro-3-(trifluoromethoxy)benzyl)-2-methyl-6-propionamidoisonicotinamide]	< 1000 nM
